Data reported in patent US20120183482A1, “MELANIN PRODUCTION INHIBITOR” (FUJIFILM CORPORATION, priority 2009, published 2012).
Values after ≈ are worked out from the molar mass of the structure shown.

Columns and labels:
[1] = tested on: B16 melanoma cells; experiment: Melanin production inhibition test; type: cell-based; conditions: for Melanin Production: no sample = 100; for IC50: Mus musculus, B16, read out from the melanin production inhibition curves (FIG. 1), read-out: IC50 values at which 50% of the melanin production was inhibited
Procedure: B16 melanoma cells were seeded on 10% (v/v) FBS-containing MEM medium (minimum basal medium containing fetal bovine serum) so as to be 2.5×10^5 cells/well in a 12-well culture plate and were cultivated for 24 hours in a usual manner.
(§1) After the pre-cultivation, the medium was replaced with a test medium and cultivation was carried out for 72 hours. As the test medium, there was employed a medium obtained by adding 0.25 mmol/L of theophylline, 0.5% (v/v) of dimethyl sulfoxide to the medium for the pre-cultivation, and each of various evaluation samples so as to be a concentration described in Table.
The Salacia crude extract was prepared by the following method. After 0.5 kg of root and trunk parts of Salacia reticulate, Salacia oblonga, and Salacia chinensis were pulverized, 10 L of water was added thereto and extraction was performed under conditions of 100° C. and 1 hour. After the obtained extract solution was filtrated through a 100-mesh filter, spray drying was performed and a product obtained as 50 g of an extract powder was used.
As ellagic acid, ellagic acid dihydrate manufactured by Wako Pure Chemical Industries, Ltd. was used.
As arbutin, β-arbutin manufactured by Sigma-Aldrich was used.
After the cultivation was finished, the cells were washed with PBS (phosphate buffer) and then a 1 mol/L aqueous sodium hydroxide solution containing 10% (v/v) dimethyl sulfoxide was added thereto. After the whole was subjected to an ultrasonic treatment at 50° C. for 30 minutes, absorbance of the solution at a wavelength of 400 nm was measured and was taken as a melanin amount in a well. Moreover, at the same time, measurement of the number of living cells by MTT assay was carried out in another culture plate (test conditions are in accordance to Example 2). Finally, the melanin amount in the well was normalized by the measurement value by the MTT assay and the resulting amount was taken as a melanin amount per unit cell.
A melanin production inhibition rate (%) in the case where the evaluation sample was added was determined, the melanin amount in the case where no evaluation sample was added being regarded as 100.

[2] = tested on: B16 melanoma cells; experiment: Cytotoxicity test (MTT assay); type: cell-based; conditions: for Cell survival rate: 72 hours, no sample = 100
Procedure: B16 melanoma cells were seeded on 10% (v/v) FBS-containing MEM medium so as to be 1.25×10^5 cells/well in a 24-well culture plate and were cultivated for 24 hours in a usual manner.
as §1
After the cultivation was finished, the cells were washed with PBS and then a 0.5 mg/mL MTT solution was added in an amount of 500 μL/well and the temperature was kept for 2 hours in an incubator. Thereafter, 1.5 mL of dimethyl sulfoxide was added thereto and then absorbance at a wavelength of 570 nm was measured and taken as an index of the number of living cells.
A cell revival rate (%) in the case where the evaluation sample was added was determined, the number of living cells in the case where no evaluation sample was added being regarded as 100.

[3] = high concentration region, data are not shown

## COc1ccc(C(=O)[O-])c(O)c1.[K+] [Potassium 4-methoxysalicylate]
[1]; 123.69 μg/mL, 72 hours
  Melanin Production: 46.0%
[1]; 412.3 μg/mL, 72 hours
  Melanin Production: 20.1%
[1]
  IC50: 80 µg/mL
[2]; [3]
  cytotoxicity (in words): cytotoxicity was observed

## O=c1oc2c(O)c(O)cc3c(=O)oc4c(O)c(O)cc1c4c23 [Ellagic acid, ellagic acid dihydrate]
[1]; 0.67646 μg/mL, 72 hours
  Melanin Production: 79%
[1]; 2.02938 μg/mL, 72 hours
  Melanin Production: 33%
[1]
  IC50: 1.5 µg/mL
[2]; 0.67646 μg/mL
  Cell survival rate: 117.4%
[2]; 2.02938 μg/mL
  Cell survival rate: 107.3%
[2]; 6.7646 μg/mL
  Cell survival rate: 48.1%
[2]; 20.2938 μg/mL
  Cell survival rate: 25.8%
[2]; high concentration region (up to 20.3 μg/mL)
  cytotoxicity (in words): exhibited cytotoxicity

## OC[C@H]1O[C@@H](Oc2ccc(O)cc2)[C@H](O)[C@@H](O)[C@@H]1O [Arbutin, β-arbutin]
[1]; 16.338 μg/mL, 72 hours
  Melanin Production: 69.5%
[1]; 54.46 μg/mL, 72 hours
  Melanin Production: 49.9%
[1]; 163.38 μg/mL, 72 hours
  Melanin Production: 28.4%
[1]; 544.6 μg/mL, 72 hours
  Melanin Production: 20.7%
[1]
  IC50: 54 µg/mL (≈ 198 µM)
[2]; [3]
  cytotoxicity (in words): cytotoxicity was observed

## O=S(=O)([O-])O[C@@H](CO)[C@H](O)C[S@+]1C[C@@H](O)[C@H](O)[C@H]1CO [Salacinol, salacinol]
[1]; 1.998 μg/mL, 72 hours, melanin amount per unit cell
  Melanin Production: 71%
[1]; 6.66 μg/mL, 72 hours
  Melanin Production: 50%
[1]; 19.98 μg/mL, 72 hours
  Melanin Production: 34%
[1]; B16 melanoma cells, 72 hours
  melanin production inhibitory effect (in words): concentration-dependent and remarkable melanin production inhibitory effect
[1]
  IC50: 6.3 µg/mL (≈ 18.8 µM)
[2]; 1.998 μg/mL
  Cell survival rate: 89.6%
[2]; 6.66 μg/mL
  Cell survival rate: 85.0%
[2]; 19.98 μg/mL
  Cell survival rate: 87.9%
[2]; 66.6 μg/mL
  Cell survival rate: 78.8%
[2]; concentration region up to 66.6 μg/mL
  cytotoxicity (in words): almost no cytotoxicity

## O=c1cc(CO)occ1O [Kojic acid]
[1]; 8.5266 μg/mL, 72 hours
  Melanin Production: 83.6%
[1]; 28.422 μg/mL, 72 hours
  Melanin Production: 77.2%
[1]; 85.266 μg/mL, 72 hours
  Melanin Production: 72.8%
[1]; 284.22 μg/mL, 72 hours
  Melanin Production: 43.4%
[1]
  IC50: 240 µg/mL (≈ 1690 µM)
[2]; [3]
  cytotoxicity (in words): cytotoxicity was observed
